Source: PubChem BioAssay (NCI)
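Dose response: 5 concentrations. Exposure: 48 h. Format: 96-well plates. Endpoint: linear interpolation; highest concentration if not reached. At the TGI there is no net growth.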

How the values were obtained:
Assay in all cases: NCI tumour cell line growth inhibition, 48 h
TK-10 renal = system: TK-10 renal
DMS 273 small cell lung = system: DMS 273 small cell lung
M19-MEL melanoma = system: M19-MEL melanoma
LXFL 529 NSCLC = system: LXFL 529 NSCLC
DMS 114 small cell lung = system: DMS 114 small cell lung
RXF 393 renal = system: RXF 393 renal
HL-60(TB) leukemia = system: HL-60(TB) leukemia
COLO 205 colon = system: COLO 205 colon
U251 CNS = system: U251 CNS
DLD-1 colon = system: DLD-1 colon
SK-MEL-2 melanoma = system: SK-MEL-2 melanoma
KM20L2 colon = system: KM20L2 colon
XF 498 CNS = system: XF 498 CNS
HT29 colon = system: HT29 colon
786-0 renal = system: 786-0 renal
HOP-18 NSCLC = system: HOP-18 NSCLC
KM12 colon = system: KM12 colon
SNB-78 CNS = system: SNB-78 CNS

| SMILES | TGI (TK-10 renal) [µM] | TGI (DMS 273 small cell lung) [µM] | TGI (M19-MEL melanoma) [µM] | TGI (LXFL 529 NSCLC) [µM] | TGI (DMS 114 small cell lung) [µM] | TGI (RXF 393 renal) [µM] | TGI (HL-60(TB) leukemia) [µM] | TGI (COLO 205 colon) [µM] | TGI (U251 CNS) [µM] | TGI (DLD-1 colon) [µM] | TGI (SK-MEL-2 melanoma) [µM] | TGI (KM20L2 colon) [µM] | TGI (XF 498 CNS) [µM] | TGI (HT29 colon) [µM] | TGI (786-0 renal) [µM] | TGI (HOP-18 NSCLC) [µM] | TGI (KM12 colon) [µM] | TGI (SNB-78 CNS) [µM] |
| --- | --- | --- | --- | --- | --- | --- | --- | --- | --- | --- | --- | --- | --- | --- | --- | --- | --- | --- |
| Cc1nc2sccn2c1C(=O)NN | > 100 | > 100 | > 100 | > 100 | > 100 | > 100 | > 100 | > 100 | > 100 | > 100 | > 100 | > 100 | > 100 | > 100 | > 100 | > 100 | > 100 |  |
| COc1cc(C2C(Cl)C(=O)N2NC(=O)Cc2ccccc2)cc(Br)c1O (stereo not given) | > 100 | > 100 | > 100 | > 100 | > 100 | > 100 | > 100 | > 100 | > 100 | > 100 | > 100 | > 100 | > 100 | > 100 | > 100 | > 100 | > 100 | > 100 |
| Cc1ccc2c(c1)C(=C(C#N)C#N)CCCS2(=O)=O | > 100 |  |  |  |  | > 100 | > 100 | > 100 | > 100 |  | > 100 |  |  | > 100 | > 100 |  | > 100 |  |
| CC(/C=C/C(=O)NO)=C\C(C)C(=O)c1ccc(N(C)C)cc1 (stereo not given) | 0.107 |  |  |  |  | 0.104 | 2.53 | 0.0854 | 0.0354 |  | 0.778 |  |  | > 100 | 6.42 |  | 0.932 |  |
| Cc1ccc2c(=O)cc(-c3sccc3C)[nH]c2n1 | > 100 |  |  |  |  | > 20.1 | 0.743 | 1.41 | > 33.6 |  | > 40 |  |  | 8.72 | > 67.8 |  | > 59.5 |  |
| CCOC(=O)c1cc(C2CCN(c3ccccc3)C2=O)c(/C(O)=C/C(C)=O)[nH]1 (stereo not given) | > 100 |  |  |  |  | 55.6 | 76 | > 100 | > 100 |  | > 100 |  |  | > 100 | > 100 |  | > 100 |  |
| CC(C)[N+]([O-])(CCCNc1c2ccccc2nc2cccc([N+](=O)[O-])c12)C(C)C | 1.4 |  |  |  |  | 0.403 | 2.69 | 0.0577 | 1.19 |  | 1.24 |  |  | 1.93 | 10.1 |  | 2.53 |  |
| O=c1ccc2ccc(OP(=O)(O)O)cc2o1 | > 100 |  |  |  |  | > 100 | > 100 | > 100 | > 100 |  | > 100 |  |  | > 100 | > 100 |  | > 100 |  |
| COc1ccc(C(c2ccccc2)(c2ccc(OC)cc2)N2C(=O)NC3C(CCCCC(=O)NCCCCCCOP(OCCC#N)N(C(C)C)C(C)C)SCC32)cc1 (stereo not given) | 35.7 | 25.3 | 33.1 | 25.2 | 36.8 | 24.2 | 32.1 | 40.7 | 28.5 | 29.4 | 24.9 | 30.8 | 30.8 | 31.7 | 35.9 | 24.4 | 34 | 34.6 |
| Nc1nc(Cl)cc(NCC2(O)CCC2)n1 | > 100 |  |  |  |  | > 100 | > 100 | > 100 | > 100 |  | > 100 |  |  | > 100 | > 100 |  | > 100 |  |
| Cc1cc(NC2=CC(=O)C(=O)c3ccccc32)no1 | 63.4 |  |  |  |  | 29.6 | > 29.6 | 31.6 | 13.4 |  | 10.4 |  |  | 28.3 | 30.4 |  | 29.7 |  |
| CN1C(=O)C2(C)SC1(c1ccccc1)C1C(=O)N(c3ccccc3)C(=O)C12 (stereo not given) | > 100 |  |  |  |  | > 100 | > 100 | > 100 | > 100 |  | > 100 |  |  | > 100 | > 100 |  | > 100 |  |
| Cc1ccc([N+](=O)[O-])cc1S(=O)(=O)Nc1ccc(C2=NN(S(=O)(=O)c3cc([N+](=O)[O-])ccc3C)C(c3ccccc3)C2)cc1 (stereo not given) | > 100 |  |  |  |  | > 100 | > 100 | 78.8 | > 100 |  | 61.6 |  |  | > 100 | > 100 |  | > 100 |  |
| C=C(C)C12CC3CC(/C(=N/O)C(C1)/C3=N\O)[C@@]2(C)O (stereo not given in full) | > 100 | > 100 | > 100 | > 100 | > 100 | > 100 | > 100 | > 100 | > 100 | > 100 | > 100 | > 100 |  | > 100 | > 100 |  |  | > 100 |
| COc1cccc2c1c1ccc3c(c1n2C)C(=O)C=CC3=O | 33.3 | 32.2 | 2.52 | 24.4 | 43.4 |  | > 100 | 19.6 | > 100 | 31.2 | 33 | > 100 | 29.4 | 12.6 | 31.4 | 29 | > 100 | 42.5 |
